Experimental data published in US8101389B2, “Bacterial glutamine synthetases and methods of use” (Athenix Corp, priority 2006, dated 2012).
“Also recorded” adds a separate entry of the source.

How the values were obtained:
[1] = system: ATX 20345; experiment: Growth of strain ATX 20345 in minimal medium with glufosinate; format: cell-based, Serratia marcescens; details: no other nitrogen source, 21° C.
Protocol: A glufosinate resistant bacterial strain (ATX 20345) was isolated from a soil sample via a soil suspension by placing approximately 0.01 grams soil in 500 μl sterile water. The soil suspension was vortexed, and 20 μl was used to inoculate a 2.5 ml minimal medium culture supplemented with 5 mM glufosinate (Riedel-de Habël, available through Sigma-Aldrich, St. Louis, Mo.). The minimal medium contains the following ingredients (per 1 liter): 10 grams sucrose, 1 ml 0.8M MgSO4, 1 ml 0.1M CaCl2, 1 ml trace elements, 2.38 grams KH2PO4, 5.64 grams K2HPO4. The pH is adjusted to 7.0, and the solution is sterilized with a 0.2 μm filter. Trace elements consist of (per 100 ml) 0.1 g FeSO4.7H2O, 0.5 mg CuSO4.5H2O, 1.0 mg H3BO3, 1.0 mg MnSO4.5H2O, 7.0 mg ZnSO4.7H2O, 1.0 mg MoO3, 4.0 g KCl. No additional nitrogen source was provided in the medium. Cultures were grown at 21° C. on a rotary shaker for 3 days then transferred to fresh minimal medium containing 5 mM glufosinate and incubated at 21° C. After 2 days, the cultures were used to inoculate fresh minimal medium with 5 mM glufosinate. After 2 days, the cultures were plated onto Luria Bertani (LB) agar and then restruck for isolation. […] Colonies on LB agar are pinkish-red, raised, circular, and 1-2 mm in diameter. ATX20345 was typed by fatty acid analysis (as known in the art), and determined to be a strain of Serratia marcescens. […]

[2] = target: Serratia marcescens glutamine synthetase AGS1 variant AGS1m21, N160S, G167R, V214M, SEQ ID NO:42 (Serratia marcescens, UniProt A0A0F6KS08, G167R/N160S/V214M); experiment: enzymatic assay, kinetics of AGS1m21; format: biochemical
Chain of Serratia marcescens glutamine synthetase AGS1 variant AGS1m21, N160S, G167R, V214M, SEQ ID NO:42 (A0A0F6KS08 whole entry N160S/G167R/V214M): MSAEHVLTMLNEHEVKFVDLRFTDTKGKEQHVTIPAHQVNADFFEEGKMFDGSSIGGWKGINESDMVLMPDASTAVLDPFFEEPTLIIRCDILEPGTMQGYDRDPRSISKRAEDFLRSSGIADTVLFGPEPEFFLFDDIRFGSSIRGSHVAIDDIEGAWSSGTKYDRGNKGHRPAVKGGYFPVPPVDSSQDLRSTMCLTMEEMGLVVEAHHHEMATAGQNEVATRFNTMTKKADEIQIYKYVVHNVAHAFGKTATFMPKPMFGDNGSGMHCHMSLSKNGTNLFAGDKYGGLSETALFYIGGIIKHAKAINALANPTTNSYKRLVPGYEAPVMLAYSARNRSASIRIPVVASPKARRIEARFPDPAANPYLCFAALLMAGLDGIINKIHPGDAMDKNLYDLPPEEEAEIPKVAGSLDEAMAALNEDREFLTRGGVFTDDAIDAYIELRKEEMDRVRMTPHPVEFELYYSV
Excerpt: ags1m21 (SEQ ID NO:41) encodes the AGS1m21 protein (SEQ ID NO:42). AGS1m21 is a variant of AGS1 that contains a similar amino acid change identified in other variants (V214M), as well as two novel mutations (N160S and G167R). This enzyme was expressed in E. coli, purified, and the kinetic values Km(glutamate) and Ki(glufosinate) of the variant measured by enzymatic assay.

[3] = target: Serratia marcescens glutamine synthetase AGS1 variant AGS1(AD-), tyrosine 398 to phenylalanine, SEQ ID NO:44 (Serratia marcescens, UniProt A0A0F6KS08, Y398F); experiment: enzymatic assay, kinetics of AGS1(AD-); format: biochemical
Chain of Serratia marcescens glutamine synthetase AGS1 variant AGS1(AD-), tyrosine 398 to phenylalanine, SEQ ID NO:44 (A0A0F6KS08 whole entry Y398F): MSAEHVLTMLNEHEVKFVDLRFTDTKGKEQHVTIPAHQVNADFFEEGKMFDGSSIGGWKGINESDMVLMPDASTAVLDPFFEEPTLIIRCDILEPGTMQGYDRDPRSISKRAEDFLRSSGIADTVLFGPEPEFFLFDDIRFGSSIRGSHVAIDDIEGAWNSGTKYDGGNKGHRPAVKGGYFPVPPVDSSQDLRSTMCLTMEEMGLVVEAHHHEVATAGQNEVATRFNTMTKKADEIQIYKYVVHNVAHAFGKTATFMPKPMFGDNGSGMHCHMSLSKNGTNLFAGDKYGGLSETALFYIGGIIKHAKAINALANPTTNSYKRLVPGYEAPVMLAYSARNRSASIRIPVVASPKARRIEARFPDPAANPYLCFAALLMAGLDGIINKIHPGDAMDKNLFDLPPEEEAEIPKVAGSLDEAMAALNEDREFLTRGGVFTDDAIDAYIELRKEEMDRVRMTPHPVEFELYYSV
Protocol: ags1(ad-) (SEQ ID NO:43) encoding the AGS1(AD-) protein (SEQ ID NO:44), is a variant of ags1 in which the putative adenylylation site has been removed by mutating the tyrosine at position 398 of AGS1 to a phenylalanine by site directed mutagenesis.
The unmodified enzyme (AGS1) was compared to AGS1(AD-) and AGS1m17(AD-) by carrying out enzymatic assays on both enzymes following purification from E. coli. A glutamine synthetase enzyme from E. coli (GlnA) was also tested.

[4] = system: E. coli cells with AGS1 variant AGS1m2 (pAX3422), F81S, P185S, G218S, I303N, SEQ ID NO:6; experiment: growth of E. coli on herbicide plates, ags1m2; format: cell-based; details: 200 mM glufosinate
Protocol: Mutants of the bacterial glutamine synthetase gene ags1 (SEQ ID NO:1) were created by error-prone mutagenesis using the GENEMORPH® Random Mutagenesis kit, and also using oligo-directed mutagenesis as known in the art. However, many methods are available for creating libraries of mutants. The resulting mutants were cloned into a pUC19 vector, electroporated into either XL-1 or DH5 alpha E. coli cells, and selected for growth on M63+ agar media containing antibiotic and 2, 10, or 20 mM glufosinate. Twenty-two clones were identified as growing on 20 mM glufosinate, and picked for further analysis.
ags1m2 was mutagenized by error-prone mutagenesis using GENEMORPH® II Random Mutagenesis kit (Stratagene) according to manufacturer's instructions. Mutagenized PCR product was digested with Sac I and Hind III, and ligated into a pUC vector, similarly digested with Sac I and Hind III. Ligations were transformed into E. coli cells, and plated onto M63+ plates containing antibiotic, and 125 mM glufosinate. Clones growing on 125 mM glufosinate plates were retested on 200 mM glufosinate plates, and compared to similar platings of ags1m1 and ags1m2. […] The DNA sequence of the ags open reading frame in pAX3439 was sequenced, and the gene designated as ags1m16. The DNA sequence of ags1m16 is represented herein as SEQ ID NO:31, and the amino acid sequence is represented herein as SEQ ID NO:32. […]

[5] = system: E. coli DH5α cells with TKH2; experiment: growth of DH5α with TKH2 on M63 minimal plates with glufosinate; format: cell-based; details: 20 mM glufosinate
Protocol: To obtain the gene(s) responsible for the strain's resistance to glufosinate, a small insert plasmid genomic library was prepared from strain ATX 20345. Genomic DNA was extracted from a fresh, overnight LB culture using SDS, proteinase K cell lysis followed by CTAB/NaCl, phenol-chloroform extractions. Partial digests were performed on the genomic DNA using 0.1 units Sau3A I at 37° C. for 30 minutes followed by the addition of EDTA and incubation at 65° C. for 20 minutes to halt the reaction. Resultant DNA was approximately 4-12 kb in size. The DNA was gel purified, treated with T4 polynucletide kinase, then ligated into BamH I digested pUC18 vector. Ligations were transformed into DH5a and plated directly on M63 minimal media plates containing 20 mM glufosinate, 100 μg/ml carbenicillin, and 0.1 mM IPTG. After several days, 4 colonies had appeared, tentatively named TKH1-4. They were grown up and plasmid DNA was isolated and analyzed by digestion with EcoR I+ Hind III, and Pst I/Sac Ito compare inserts. Though all four clones contained inserts, TKH2 and TKH3 were identical by restriction digest analysis, and both contained inserts of approximately 4.9 kb.
To reconfirm that TKH2 and TKH3 confer resistance to 20 mM glufosinate, the purified plasmids were retransformed into DH5α cells. pUC18 was retransformed as a negative control. […]

Which “growth of ATX 20345 in the presence of glufosinate” value [1] does the source give for CP(=O)(O)CCC(N)C(=O)O (stereo not drawn) [glufosinate] here?
The value was “ability to grow in the presence of 5 mM glufosinate; also recorded: grows well through 50 mM”.

What about the Ki [2] of the same compound?
The Ki was 2000 µM.

And the Ki [3]?
The Ki was 13 µM.

What about the “(Kcat*Ki)/Km” value ([3]; Table 5, Km glutamate, Ki glufosinate) of the same compound?
The value was 12.59.

And the “growth on 200 mM glufosinate plates” value [4]?
Its value is “did not grow”.

What about the “growth in the presence of glufosinate” value [5] of the same compound?
The value was “grew in the presence of glufosinate”.
